Experimental data from PMC11243693, “Synthesis and Biological Evaluation of New Compounds with Nitroimidazole Moiety” (Molecules, 2024).
In brackets after ≈: the same amount, converted by molar mass.

Tests used:
Format in all cases: cell-based
[1] = system: Staphylococcus aureus ATCC 25923; test: Broth microdilution, S. aureus ATCC 25923; details: Sa 25923
Experimental: (§1) The antibacterial activity of the obtained thiosemicarbazides and hydrazide–hydrazones was determined by evaluating their ability to inhibit microbial growth in vitro using the broth microdilution method, according to the guidelines of the European Committee on Antimicrobial Susceptibility Testing (EUCAST). The method involved the preparation of microbial suspensions with a standardized density of 0.5 on the McFarland scale (equivalent to 1.5 × 10^8 colony-forming units/mL for bacteria and […] for fungi). A solution of the test substances was then prepared (initial concentration 1000 µg/mL, diluted in sterile Mueller-Hinton broth for bacteria or Mueller-Hinton with 2% glucose for fungi). The test was carried out in 96-well polystyrene flat-bottom plates (Medlab, Poland) with 100 µL of appropriate sterile microbiological medium in each well. The first wells were filled with 200 µL of the test substance, diluted to the initial concentration, and then double-decreasing dilutions were made under aseptic conditions using an automatic pipette. The final step was the addition of a 10-fold diluted microbial suspension of 2 µL. At the same time, the following controls were included: (a) medium control (100 µL of sterile medium without microorganisms added), (b) microbial viability control, (c) test substance control (dilutions without added micro-organisms), (d) positive control of the drug used in the clinic. The plates thus prepared were incubated for 18 ± 2 h at 35 ± 2 °C under conditions optimal for the growth of the test microorganisms. After incubation, the spectrophotometric absorbance at 570 nm in each well of the plate was read. The aim of this part of the study was to determine two parameters: the minimum inhibitory concentration (MIC) and the minimum bactericidal or fungicidal concentration (MBC/MFC) of the test compound. […] The MBC value was determined by adding 5 µL of the contents of each well of the plate to solid sterile MHA or MHA + 2%glc medium for bacteria and fungi, respectively. The area on the plate where 99.9% inhibition of microbial growth was observed indicated the lethal concentration. In addition, the quotient MBC(MFC)/MIC could be determined to assess the nature of the activity of the test substance. If MBC(MFC)/MIC was <4, the test substance was bactericidal/fungicidal, whereas if MBC(MFC)/MIC was ≥4, it was bacteriostatic/fungistatic. Amoxicillin (Glentham Life Sciences, USA) and nystatin (Glentham Life Sciences, USA) were used as the controls for this assay.
(§2) The test was performed either on bacteria, comprising: Gram-positive (Staphylococcus aureus ATCC 25923, Staphylococcus aureus ATCC 6538, Staphylococcus aureus ATCC 43300 methicillin-resistant MRSA, Staphylococcus epidermidis ATCC 12228, Micrococcus luteus ATCC 10240, Bacillus subtilis ATCC 6633, Bacillus cereus ATCC 10876) and Gram-negative (Escherichia coli ATCC 25922, Pseudomonas aeruginosa ATCC 27853, Proteus mirabilis ATCC 12453, Klebsiella pneumoniae ATCC 13883) or yeast (Candida parapsilosis ATCC 22019, Candida glabrata ATCC 90030, Candida krusei ATCC 14243, Candida glabrata ATCC 15126, Candida tropicalis ATCC 1369, Candida auris CDC B11903, Candida lusitaniae ATCC 3449) reference strains from the American Type Culture Collection (ATCC) or the Centers for Disease Control and Prevention (CDC).

[2] = system: Staphylococcus aureus ATCC 6538; test: Broth microdilution, S. aureus ATCC 6538; details: Sa 6538
Experimental: as §1, §2

[3] = system: Staphylococcus aureus ATCC 43300 methicillin-resistant MRSA; test: Broth microdilution, S. aureus ATCC 43300 MRSA; details: Sa 43300 MRSA
Experimental: as §1, §2

[4] = system: Staphylococcus epidermidis ATCC 12228; test: Broth microdilution, S. epidermidis ATCC 12228; details: Se 12228; for MBC/MIC Ratio: <4 bactericidal, ≥4 bacteriostatic
Experimental: as §1, §2

[5] = system: Micrococcus luteus ATCC 10240; test: Broth microdilution, M. luteus ATCC 10240; details: Ml 10240; for MBC/MIC Ratio: <4 bactericidal, ≥4 bacteriostatic
Experimental: as §1, §2

[6] = system: Bacillus subtilis ATCC 6633; test: Broth microdilution, B. subtilis ATCC 6633; details: Bs 6633; for MBC/MIC Ratio: <4 bactericidal, ≥4 bacteriostatic
Experimental: as §1, §2

[7] = system: Bacillus cereus ATCC 10876; test: Broth microdilution, B. cereus ATCC 10876; details: Bc 10876
Experimental: as §1, §2

[8] = system: Candida parapsilosis ATCC 22019; test: Broth microdilution, C. parapsilosis ATCC 22019; details: Cp 22019
Experimental: as §1, §2

[9] = system: Candida glabrata ATCC 90030; test: Broth microdilution, C. glabrata ATCC 90030; details: Cg 90030
Experimental: as §1, §2

[10] = system: Candida krusei ATCC 14243; test: Broth microdilution, C. krusei ATCC 14243; details: Ck 14243
Experimental: as §1, §2

[11] = system: Candida glabrata ATCC 15126; test: Broth microdilution, C. glabrata ATCC 15126; details: Cg 15126
Experimental: as §1, §2

[12] = system: Candida tropicalis ATCC 1369; test: Broth microdilution, C. tropicalis ATCC 1369; details: Ct 1369; for MFC/MIC Ratio: <4 fungicidal, ≥4 fungistatic
Experimental: as §1, §2

[13] = system: Candida auris CDC B11903; test: Broth microdilution, C. auris CDC B11903; details: Ca B11903
Experimental: as §1, §2

[14] = system: Candida lusitaniae ATCC 3449; test: Broth microdilution, C. lusitaniae ATCC 3449; details: Cl 3449
Experimental: as §1, §2

[15] = system: Candida spp.; test: Broth microdilution, Candida spp.; details: range over both strains and the listed compounds
Experimental: as §1, §2

Row | MIC [1] | MIC [2] | MIC [3] | MIC [4] | MIC [5] | MIC [6] | MIC [7] | MIC [8] | MIC [9] | MIC [10] | MIC [11] | SMILES | MBC [1] | MBC [2] | MBC [3] | MBC [4] | MBC [5] | MBC [6] | MBC/MIC Ratio [6] | MBC [7] | MFC [8] | further results
1 | 250 µg/mL (≈ 705 µM) | 500 µg/mL (≈ 1410 µM) | 1000 µg/mL (≈ 2820 µM) | 250 µg/mL (≈ 705 µM) | 250 µg/mL (≈ 705 µM) | 125 µg/mL (≈ 352 µM) | 1000 µg/mL (≈ 2820 µM) | 250 µg/mL (≈ 705 µM) | >1000 µg/mL | >1000 µg/mL | >1000 µg/mL | Cn1cc([N+](=O)[O-])nc1C(=O)NNC(=S)Nc1ccccc1Cl [Compound 3] | >1000 µg/mL | >1000 µg/mL | >1000 µg/mL | 500 µg/mL (≈ 1410 µM) | 250 µg/mL (≈ 705 µM) | 125 µg/mL (≈ 352 µM) | 1 | >1000 µg/mL | >1000 µg/mL | MBC/MIC Ratio [4]: 2; MBC/MIC Ratio [5]: 1; MFC [12]: 500 µg/mL (≈ 1410 µM); MIC [12]: 250 µg/mL (≈ 705 µM); MFC/MIC Ratio [12]: 2; MIC [13]: >1000 µg/mL; MIC [14]: >1000 µg/mL; MBC (range, C. parapsilosis ATCC 22019 and C. tropicalis ATCC 1369) [15]: 500 to 1000 µg/mL; MIC (range, C. parapsilosis ATCC 22019 and C. tropicalis ATCC 1369) [15]: 62.5 to 1000 µg/mL
2 | 62.5 µg/mL (≈ 176 µM) | 250 µg/mL (≈ 705 µM) | 500 µg/mL (≈ 1410 µM) | 125 µg/mL (≈ 352 µM) | 125 µg/mL (≈ 352 µM) | 62.5 µg/mL (≈ 176 µM) | 250 µg/mL (≈ 705 µM) | 62.5 µg/mL (≈ 176 µM) | >1000 µg/mL | >1000 µg/mL | >1000 µg/mL | Cn1cc([N+](=O)[O-])nc1C(=O)NNC(=S)Nc1cccc(Cl)c1 [Compound 4] | >1000 µg/mL | >1000 µg/mL | >1000 µg/mL | 125 µg/mL (≈ 352 µM) | 500 µg/mL (≈ 1410 µM) | 62.5 µg/mL (≈ 176 µM) | 1 | >1000 µg/mL | >1000 µg/mL | MBC/MIC Ratio [4]: 1; MBC/MIC Ratio [5]: 4; MFC [12]: 500 µg/mL (≈ 1410 µM); MIC [12]: 250 µg/mL (≈ 705 µM); MFC/MIC Ratio [12]: 2; MIC [13]: >1000 µg/mL; MIC [14]: >1000 µg/mL; MBC (range, C. parapsilosis ATCC 22019 and C. tropicalis ATCC 1369) [15]: 500 to 1000 µg/mL; MIC (range, C. parapsilosis ATCC 22019 and C. tropicalis ATCC 1369) [15]: 62.5 to 1000 µg/mL
3 | 500 µg/mL (≈ 1430 µM) | 1000 µg/mL (≈ 2850 µM) | 1000 µg/mL (≈ 2850 µM) | 500 µg/mL (≈ 1430 µM) | 500 µg/mL (≈ 1430 µM) | 500 µg/mL (≈ 1430 µM) | 1000 µg/mL (≈ 2850 µM) | 500 µg/mL (≈ 1430 µM) | >1000 µg/mL | >1000 µg/mL | >1000 µg/mL | COc1ccccc1NC(=S)NNC(=O)c1nc([N+](=O)[O-])cn1C [Compound 9] | >1000 µg/mL | >1000 µg/mL | >1000 µg/mL | >1000 µg/mL | >1000 µg/mL | 500 µg/mL (≈ 1430 µM) | 1 | >1000 µg/mL | 1000 µg/mL (≈ 2850 µM) | MFC/MIC Ratio ([8]; <4 fungicidal, ≥4 fungistatic): 2; MFC [12]: 1000 µg/mL (≈ 2850 µM); MIC [12]: 500 µg/mL (≈ 1430 µM); MFC/MIC Ratio [12]: 2; MIC [13]: >1000 µg/mL; MIC [14]: >1000 µg/mL; MBC (range, C. parapsilosis ATCC 22019 and C. tropicalis ATCC 1369) [15]: 500 to 1000 µg/mL; MIC (range, C. parapsilosis ATCC 22019 and C. tropicalis ATCC 1369) [15]: 62.5 to 1000 µg/mL
